According to ChEMBL document CHEMBL4043145, “Pyridine-pyrimidine amides that prevent HGF-induced epithelial scattering by two distinct mechanisms” (Bioorg Med Chem Lett, 2017):

Key:
[1] = system: MCF7; experiment: Antiproliferative activity against human MCF7 cells at 10 uM relative to control; format: functional, cell-based
[2] = system: A2780; experiment: Antiproliferative activity against human A2780 cells; format: functional, cell-based
[3] = system: A2780; experiment: Cell cycle arrest in human A2780 cells assessed as accumulation at S phase at 1000 nM (reference value: 21.16 to 22.81%); format: functional
[4] = system: A2780; experiment: Cell cycle arrest in human A2780 cells assessed as accumulation at S phase at 300 nM (reference value: 21.16 to 22.81%); format: functional
[5] = system: A2780; experiment: Cell cycle arrest in human A2780 cells assessed as accumulation at G2/M phase at 1000 nM (reference value: 19.42 to 20.43%); format: functional
[6] = system: A2780; experiment: Cell cycle arrest in human A2780 cells assessed as accumulation at G1 phase at 100 nM (reference value: 55.26 to 55.66%); format: functional
[7] = system: A2780; experiment: Cell cycle arrest in human A2780 cells assessed as accumulation at G1 phase at 300 nM (reference value: 55.26 to 55.66%); format: functional
[8] = system: A2780; experiment: Cell cycle arrest in human A2780 cells assessed as accumulation at G2/M phase at 300 nM (reference value: 19.42 to 20.43%); format: functional
[9] = system: MCF7; experiment: Cell cycle arrest in human MCF7 cells assessed as accumulation at G1 phase at 1000 nM (reference value: 47.47 to 52.3%); format: functional
[10] = system: MCF7; experiment: Cell cycle arrest in human MCF7 cells assessed as accumulation at S phase at 1000 nM (reference value: 25.36 to 26.82%); format: functional
[11] = system: MCF7; experiment: Cell cycle arrest in human MCF7 cells assessed as accumulation at G2/M phase at 1000 nM (reference value: 20.06 to 22.33%); format: functional
[12] = system: MCF7; experiment: Cell cycle arrest in human MCF7 cells assessed as accumulation at G2/M phase at 100 nM (reference value: 20.06 to 22.33%); format: functional
[13] = system: MCF7; experiment: Cell cycle arrest in human MCF7 cells assessed as accumulation at G1 phase at 300 nM (reference value: 47.47 to 52.3%); format: functional
[14] = system: MCF7; experiment: Cell cycle arrest in human MCF7 cells assessed as accumulation at S phase at 300 nM (reference value: 25.36 to 26.82%); format: functional
[15] = system: MCF7; experiment: Cell cycle arrest in human MCF7 cells assessed as accumulation at G2/M phase at 300 nM (reference value: 20.06 to 22.33%); format: functional
[16] = system: PC-3; experiment: Cell cycle arrest in human p53-null PC3 cells assessed as accumulation at G1 phase at 1000 nM (reference value: 50.77 to 51.16%); format: functional
[17] = system: PC-3; experiment: Cell cycle arrest in human p53-null PC3 cells assessed as accumulation at S phase at 1000 nM (reference value: 29.08 to 29.33%); format: functional
[18] = system: PC-3; experiment: Cell cycle arrest in human p53-null PC3 cells assessed as accumulation at G2/M phase at 1000 nM (reference value: 18.37 to 18.96%); format: functional
[19] = system: PC-3; experiment: Cell cycle arrest in human p53-null PC3 cells assessed as accumulation at G1 phase at 100 nM (reference value: 50.77 to 51.16%); format: functional
[20] = system: PC-3; experiment: Cell cycle arrest in human p53-null PC3 cells assessed as accumulation at G1 phase at 300 nM (reference value: 50.77 to 51.16%); format: functional
[21] = system: PC-3; experiment: Cell cycle arrest in human p53-null PC3 cells assessed as accumulation at G2/M phase at 300 nM (reference value: 18.37 to 18.96%); format: functional
[22] = system: MFE-280; experiment: Cell cycle arrest in human MFE280 cells assessed as accumulation at G1 phase at 100 nM (reference value: 64.99 to 67.86%); format: functional
[23] = system: MFE-280; experiment: Cell cycle arrest in human MFE280 cells assessed as accumulation at G2/M phase at 100 nM (reference value: 16.43 to 17.9%); format: functional
[24] = system: MFE-280; experiment: Cell cycle arrest in human MFE280 cells assessed as accumulation at G1 phase at 300 nM (reference value: 64.99 to 67.86%); format: functional
[25] = system: MFE-280; experiment: Cell cycle arrest in human MFE280 cells assessed as accumulation at G2/M phase at 300 nM (reference value: 16.43 to 17.9%); format: functional
[26] = system: MFE-296; experiment: Cell cycle arrest in human MFE296 cells assessed as accumulation at S phase at 1000 nM (reference value: 16.96 to 19.19%); format: functional
[27] = system: MFE-296; experiment: Cell cycle arrest in human MFE296 cells assessed as accumulation at G1 phase at 100 nM (reference value: 61.05 to 64.87%); format: functional
[28] = system: MFE-296; experiment: Cell cycle arrest in human MFE296 cells assessed as accumulation at S phase at 100 nM (reference value: 16.96 to 19.19%); format: functional
[29] = system: MFE-296; experiment: Cell cycle arrest in human MFE296 cells assessed as accumulation at G2/M phase at 100 nM (reference value: 15.71 to 17.04%); format: functional
[30] = system: MFE-296; experiment: Cell cycle arrest in human MFE296 cells assessed as accumulation at G1 phase at 300 nM (reference value: 61.05 to 64.87%); format: functional
[31] = system: MFE-296; experiment: Cell cycle arrest in human MFE296 cells assessed as accumulation at S phase at 300 nM (reference value: 16.96 to 19.19%); format: functional
[32] = system: MFE-296; experiment: Cell cycle arrest in human MFE296 cells assessed as accumulation at G2/M phase at 300 nM (reference value: 15.71 to 17.04%); format: functional
[33] = system: T47D; experiment: Cell cycle arrest in human T47D cells assessed as accumulation at S phase at 1000 nM (reference value: 19.89 to 24.55%); format: functional
[34] = system: T47D; experiment: Cell cycle arrest in human T47D cells assessed as accumulation at G1 phase at 300 nM (reference value: 45.5 to 57.8%); format: functional
[35] = system: T47D; experiment: Cell cycle arrest in human T47D cells assessed as accumulation at S phase at 300 nM (reference value: 19.89 to 24.55%); format: functional
[36] = system: T47D; experiment: Cell cycle arrest in human T47D cells assessed as accumulation at G2/M phase at 300 nM (reference value: 20.58 to 28.8%); format: functional
[37] = system: MCF7; experiment: Induction of apoptosis in human MCF7 cells assessed as late apoptotic cells at 1000 nM by 7-AAD/Annexin staining-based assay (reference value: 1 to 2.1%); format: functional
[38] = system: MFE-280; experiment: Induction of apoptosis in human MFE280 cells assessed as late apoptotic cells at 1000 nM by 7-AAD/Annexin staining-based assay (reference value: 6 to 7.4%); format: functional
[39] = system: MFE-280; experiment: Induction of apoptosis in human MFE280 cells assessed as early apoptotic cells at 100 nM by 7-AAD/Annexin staining-based assay (reference value: 5.1 to 6.2%); format: functional
[40] = system: MFE-296; experiment: Induction of apoptosis in human MFE296 cells assessed as nuclear debris at 300 nM by 7-AAD/Annexin staining-based assay (reference value: 0.4 to 0.8%); format: functional

Question: How did the EC50 [1] turn out when O=C(Nc1ccc(-c2cccc(Cl)c2)cn1)c1cncnc1 was run?
Answer: The EC50 was 29 nM.

Question: What about the EC50 [2] of the same molecule?
Answer: Its EC50 is 55 nM.

Question: What about the Activity [3] of the same molecule?
Answer: The Activity was 7.1%.

Question: What about the Activity [4] of the same molecule?
Answer: The Activity was 22.35%.

Question: What about the Activity [5] of the same molecule?
Answer: The Activity was 77.58%.

Question: And the Activity [6]?
Answer: The Activity was 58.01%.

Question: What about the Activity [7] of the same molecule?
Answer: Its Activity is 24.74%.

Question: What about the Activity [8] of the same molecule?
Answer: The Activity was 30.36%.

Question: And the Activity [9]?
Answer: The Activity was 8.04%.

Question: And the Activity [10]?
Answer: The Activity was 16.61%.

Question: What about the Activity [11] of the same molecule?
Answer: The Activity was 63.38%.

Question: And the Activity [12]?
Answer: Its Activity is 26.95%.

Question: And the Activity [13]?
Answer: Its Activity is 16.22%.

Question: What about the Activity [14] of the same molecule?
Answer: The Activity was 23.22%.

Question: And the Activity [15]?
Answer: Its Activity is 32.59%.

Question: And the Activity [16]?
Answer: Its Activity is 5.07%.

Question: And the Activity [17]?
Answer: Its Activity is 17.78%.

Question: And the Activity [18]?
Answer: Its Activity is 76.06%.

Question: And the Activity [19]?
Answer: The Activity was 51.5%.

Question: What about the Activity [20] of the same molecule?
Answer: Its Activity is 14.74%.

Question: And the Activity [21]?
Answer: The Activity was 60.72%.

Question: What about the Activity [22] of the same molecule?
Answer: The Activity was 61.48%.

Question: What about the Activity [23] of the same molecule?
Answer: The Activity was 18.95%.

Question: And the Activity [24]?
Answer: Its Activity is 39.17%.

Question: And the Activity [25]?
Answer: The Activity was 37.86%.

Question: And the Activity [26]?
Answer: Its Activity is 18.15%.

Question: And the Activity [27]?
Answer: Its Activity is 53.3%.

Question: What about the Activity [28] of the same molecule?
Answer: The Activity was 21.05%.

Question: And the Activity [29]?
Answer: The Activity was 21.13%.

Question: And the Activity [30]?
Answer: The Activity was 13.78%.

Question: And the Activity [31]?
Answer: The Activity was 20.61%.

Question: And the Activity [32]?
Answer: The Activity was 55.89%.

Question: What about the Activity [33] of the same molecule?
Answer: Its Activity is 21.38%.

Question: What about the Activity [34] of the same molecule?
Answer: The Activity was 42.55%.

Question: What about the Activity [35] of the same molecule?
Answer: The Activity was 27.41%.

Question: And the Activity [36]?
Answer: The Activity was 22.28%.

Question: What about the Activity [37] of the same molecule?
Answer: Its Activity is 2.4%.

Question: And the Activity [38]?
Answer: Its Activity is 8.4%.

Question: What about the Activity [39] of the same molecule?
Answer: Its Activity is 4.9%.

Question: What about the Activity [40] of the same molecule?
Answer: Its Activity is 2.6%.
